Results reported in patent publication US11192849B2, “Compounds, compositions, and methods for modulating ferroptosis and treating excitotoxic disorders” (THE TRUSTEES OF COLUMBIA UNIVERSITY IN THE CITY OF NEW YORK, priority 2013, dated 2021).
pEC50: −log10 of the molar value. Entries after “also recorded” stand apart in the source; their conditions may differ. Read-outs that look alike come from different tables or passages of the source.

Legend:
HT-1080 cells = test: Inhibition of erastin (10 μM)-induced death in HT-1080 cells (Alamar Blue); format: cell-based, human; settings: for pEC50: Homo sapiens
In short: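 HT-1080 cells (1,000/well) were treated next day with 10 μM erastin plus a compound dilution series for 24 h. Alamar Blue (10% final) was then added for 6 h and fluorescence read at ex/em 530/590.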

[1] = system: mouse kidney proximal tubules; test: Hydroxyquinoline + iron induced cell death in isolated mouse kidney proximal tubules (LDH release); format: cell-based; settings: 10 μM hydroxyquinoline and ferrous ammonium sulfate, 60 min
Experimental: Tubule preparation: 8-12 week old C57/BL6 female mice were euthanized with isoflurane. […] The cortices were then dissected and minced on an ice cold tile, then resuspended in additional Solution A for 8-10 min. of digestion at 37° C. followed by enrichment of proximal tubules using centrifugation on self-forming Percoll gradients as previously described for rabbit tubules.
Experimental procedures for isolated tubules: Tubules were suspended at 1.5-2.0 mg tubule protein/ml in a 95% air/5% CO2-gassed medium containing (in mM) 110 NaCl, 2.6 KCl, 25 NaHCO3, 2.4 KH2PO4, 1.25 CaCl2, 1.2 MgCl2, 1.2 MgSO4, 5 glucose, 4 sodium lactate, 0.3 alanine, 5 sodium butyrate, 2 glycine, and 1.0 mg/ml bovine gelatin (75 bloom) (Solution B). After precincubation for 15 min. at 37° C., then were then resuspended in fresh Solution B containing 2 mM heptanoic acid instead of sodium butyrate along with experimental compounds.
In addition, the efficacy of Fer-1, SRS11-92, and selected analogs was tested in a model of iron-induced cell death in freshly isolated mouse kidney proximal tubules that simulates major elements of rhabdomyolysis-induced acute kidney injury (FIG. 15C). Cell death in this model is known to involve oxidative lipid damage (Sogabe, et al., 1996, Park, et al., 2011); it was therefore believed that Fer-1 might be protective. 10 μM each of hydroxyquinoline and ferrous ammonium sulfate (HQ+Fe) were used to induce cell death, which was quantified by monitoring LDH release after 60 min. […] By implication, cell death in these models may involve, at least in part, the induction of lipid peroxidation and perhaps ferroptosis.

| SMILES | fold more potent than the parent Fer-1 (HT-1080 cells; HT-1080, erastin (10 μM)) [fold] | potency compared with Fer-1 (HT-1080 cells; HT-1080, erastin (10 μM)) | pEC50 (HT-1080 cells; HT-1080, Example 15, erastin (10 μM), HT-1080, read-out: EC50) | pEC50 (HT-1080 cells; HT-1080, SI Table 6, read-out: EC50) | pEC50 (HT-1080 cells; HT-1080, SI Table 7, read-out: EC50) | HQ+Fe induced lethality (LDH release) [1] | pEC50 (HT-1080 cells; HT-1080, SI Table 2, analogs with various hydrophobic moieties) | pEC50 (HT-1080 cells; HT-1080, SI Table 5) | pEC50 (HT-1080 cells; HT-1080, SI Table 8) | pEC50 (HT-1080 cells; HT-1080, Table 1 (Example 10), erastin (10 μM)-treated HT-1080 cells) | prevention of erastin-induced death (HT-1080 cells; erastin-treated HT-1080 cells) |
| --- | --- | --- | --- | --- | --- | --- | --- | --- | --- | --- | --- |
| CCOC(=O)c1ccc(NC2CCCCC2)c(NCc2ccccc2)c1 [SRS11-92, ethyl 3-(benzylamino)-4-(cyclohexylamino)benzoate] | 15 | more potent than Fer-1 | 8.22 | 8.22 | 8.22 | prevented lethality | – | – | – | – | – |
| CCOC(=O)c1ccc(NC2CCCCC2)c(N)c1 [SRS8-28 (Fer-1), ethyl 3-amino-4-(cyclohexylamino)benzoate] | – | – | – | – | – | prevented lethality; also recorded: protective | 7.02 | 7.06 | 7.06 | 7.02 | suppressed erastin-induced death |
